Test results published in PubChem BioAssay AID1963439 (Molecular Pharmacology Branch, DTP, NCI, 2024).
Values joined by “and” are separate entries in the source; they are usually repeats but may differ in a detail not shown here. Equal values may be shown once.

Test system: NCI-H196 complex spheroids with HUVEC/MSC, growth % T/C
Experiment: Anticancer human tumor NCI-H196 cell line growth inhibition [Asc];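 note: spheroids exposed to compound for 7 days before measurement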;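 for viability, T/C: 100% = DMSO vehicle control wells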
Details: for viability, T/C: stronger effect = lower value
Summary of the method: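 Concentration series start at each agent's clinical Cmax, or at 10 microM when none is established, and drop in half-log steps; agents are applied alone or together to complex spheroids built with HUVEC and hMSC.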

[1] = curve of first compound, second compound 0.1 µM
[2] = curve of first compound, second compound 0.316 µM
[3] = curve of first compound, second compound 1 µM
[4] = curve of first compound, second compound 3.16 µM
[5] = curve of first compound, second compound 10 µM

O=C(c1cc(Cc2n[nH]c(=O)c3ccccc23)ccc1F)N1CCN(C(=O)C2CC2)CC1 + Cc1c(S(C)(=O)=O)c(-c2cc(F)cc(N3CCN(c4ccc(NS(=O)(=O)c5ccc(NC(CCN6CCC(C(=O)OCCCP(=O)(O)O)CC6)CSc6ccccc6)c(S(=O)(=O)C(F)(F)F)c5)cc4)CC3)c2)c(-c2ccc(Cl)cc2)n1C(C)C
IC50 [1]: > 10000 nM
IC50 [2]: > 10000 nM
IC50 [3]: > 10000 nM
IC50 [4]: > 10000 nM
IC50 [5]: > 10000 nM
viability, T/C (second compound 0.1 µM, first compound 0.0316 µM): 98%
viability, T/C (second compound 0.1 µM, first compound 0.1 µM): 93.4%
viability, T/C (second compound 0.1 µM, first compound 0.316 µM): 85.8%
viability, T/C (second compound 0.1 µM, first compound 1 µM): 95.6%
viability, T/C (second compound 0.1 µM, first compound 3.16 µM): 99.8%
viability, T/C (second compound 0.1 µM, first compound 10 µM): 89.5%
viability, T/C (second compound 0.316 µM, first compound 0.0316 µM): 88.8%
viability, T/C (second compound 0.316 µM, first compound 0.1 µM): 102%
viability, T/C (second compound 0.316 µM, first compound 0.316 µM): 103%
viability, T/C (second compound 0.316 µM, first compound 1 µM): 88.3%
viability, T/C (second compound 0.316 µM, first compound 3.16 µM): 94.3%
viability, T/C (second compound 0.316 µM, first compound 10 µM): 87.1%
viability, T/C (second compound 1 µM, first compound 0.0316 µM): 91.4%
viability, T/C (second compound 1 µM, first compound 0.1 µM): 96.9%
viability, T/C (second compound 1 µM, first compound 0.316 µM): 88.2%
viability, T/C (second compound 1 µM, first compound 1 µM): 89%
viability, T/C (second compound 1 µM, first compound 3.16 µM): 83.5%
viability, T/C (second compound 1 µM, first compound 10 µM): 81.2%
viability, T/C (second compound 3.16 µM, first compound 0.0316 µM): 89.9%
viability, T/C (second compound 3.16 µM, first compound 0.1 µM): 83.6%
viability, T/C (second compound 3.16 µM, first compound 0.316 µM): 84.5%
viability, T/C (second compound 3.16 µM, first compound 1 µM): 86%
viability, T/C (second compound 3.16 µM, first compound 3.16 µM): 78.3%
viability, T/C (second compound 3.16 µM, first compound 10 µM): 66.3%
viability, T/C (second compound 10 µM, first compound 0.0316 µM): 73.2%
viability, T/C (second compound 10 µM, first compound 0.1 µM): 74.9%
viability, T/C (second compound 10 µM, first compound 0.316 µM): 71.6%
viability, T/C (second compound 10 µM, first compound 1 µM): 71.8%
viability, T/C (second compound 10 µM, first compound 3.16 µM): 74%
viability, T/C (second compound 10 µM, first compound 10 µM): 57.9%

CNC(C)C(=O)NC1CN(S(=O)(=O)c2cccc(S(=O)(=O)N3CCC4CCC(C(=O)NC(c5ccccc5)c5ccccc5)N4C(=O)C(NC(=O)C(C)NC)C3)c2)CCC2CCC(C(=O)NC(c3ccccc3)c3ccccc3)N2C1=O (stereo not drawn)
viability, T/C (compound 0.00316 µM): 38.2% and 43%
viability, T/C (compound 0.01 µM): 7.09% [middle of 14 runs]
viability, T/C (compound 0.0316 µM): 5.61% [middle of 14 runs]
viability, T/C (compound 0.1 µM): 3.73% [middle of 14 runs]
viability, T/C (compound 0.316 µM): 3.32% [middle of 13 runs]
viability, T/C (compound 1 µM): 2.97% [middle of 14 runs]
IC50 (compound alone, run of 10/03/2022): < 10 nM
IC50 (curve of compound): < 3.16 nM

Cc1nc(N2CCC3(CC2)COC(C)C3N)c(CO)nc1Sc1ccnc(N)c1Cl (stereo not drawn) + Cc1c(S(C)(=O)=O)c(-c2cc(F)cc(N3CCN(c4ccc(NS(=O)(=O)c5ccc(NC(CCN6CCC(C(=O)OCCCP(=O)(O)O)CC6)CSc6ccccc6)c(S(=O)(=O)C(F)(F)F)c5)cc4)CC3)c2)c(-c2ccc(Cl)cc2)n1C(C)C
IC50 [1]: 1350 nM
IC50 [2]: 1140 nM
IC50 [3]: 1150 nM
IC50 [4]: 930 nM
IC50 [5]: 1170 nM
viability, T/C (second compound 0.1 µM, first compound 0.00949 µM): 111%
viability, T/C (second compound 0.1 µM, first compound 0.03 µM): 118%
viability, T/C (second compound 0.1 µM, first compound 0.0949 µM): 96.2%
viability, T/C (second compound 0.1 µM, first compound 0.3 µM): 87.8%
viability, T/C (second compound 0.1 µM, first compound 0.949 µM): 60.1%
viability, T/C (second compound 0.1 µM, first compound 3 µM): 26.3%
viability, T/C (second compound 0.316 µM, first compound 0.00949 µM): 93.4%
viability, T/C (second compound 0.316 µM, first compound 0.03 µM): 102%
viability, T/C (second compound 0.316 µM, first compound 0.0949 µM): 109%
viability, T/C (second compound 0.316 µM, first compound 0.3 µM): 93.8%
viability, T/C (second compound 0.316 µM, first compound 0.949 µM): 55.2%
viability, T/C (second compound 0.316 µM, first compound 3 µM): 24%
viability, T/C (second compound 1 µM, first compound 0.00949 µM): 93.1%
viability, T/C (second compound 1 µM, first compound 0.03 µM): 97.9%
viability, T/C (second compound 1 µM, first compound 0.0949 µM): 98.1%
viability, T/C (second compound 1 µM, first compound 0.3 µM): 87%
viability, T/C (second compound 1 µM, first compound 0.949 µM): 55.4%
viability, T/C (second compound 1 µM, first compound 3 µM): 24%
viability, T/C (second compound 3.16 µM, first compound 0.00949 µM): 93.9%
viability, T/C (second compound 3.16 µM, first compound 0.03 µM): 97.8%
viability, T/C (second compound 3.16 µM, first compound 0.0949 µM): 103%
viability, T/C (second compound 3.16 µM, first compound 0.3 µM): 84.9%
viability, T/C (second compound 3.16 µM, first compound 0.949 µM): 49.9%
viability, T/C (second compound 3.16 µM, first compound 3 µM): 22.9%
viability, T/C (second compound 10 µM, first compound 0.00949 µM): 84.7%
viability, T/C (second compound 10 µM, first compound 0.03 µM): 93.7%
viability, T/C (second compound 10 µM, first compound 0.0949 µM): 88.5%
viability, T/C (second compound 10 µM, first compound 0.3 µM): 78%
viability, T/C (second compound 10 µM, first compound 0.949 µM): 55.9%
viability, T/C (second compound 10 µM, first compound 3 µM): 24.7%

NC(=O)C(=Cn1cnc(-c2cc(C(F)(F)F)cc(C(F)(F)F)c2)n1)c1cncnc1 + CCN1C(C(=O)NC23CCC(C(=O)O)(CC2)CC3)C(c2cccc(Cl)c2F)C2(C(=O)Nc3cc(Cl)ccc32)C12CCCCC2
IC50 (curve of first compound, second compound 0.03 µM): 22.1 nM
IC50 (curve of first compound, second compound 0.0949 µM): 24.3 nM
IC50 (curve of first compound, second compound 0.3 µM): 26.2 nM
IC50 (curve of first compound, second compound 0.949 µM): 26.4 nM
IC50 (curve of first compound, second compound 3 µM): 26.8 nM
viability, T/C (second compound 0.03 µM, first compound 0.000949 µM): 110%
viability, T/C (second compound 0.03 µM, first compound 0.003 µM): 99.3%
viability, T/C (second compound 0.03 µM, first compound 0.00949 µM): 79.1%
viability, T/C (second compound 0.03 µM, first compound 0.03 µM): 41.6%
viability, T/C (second compound 0.03 µM, first compound 0.0949 µM): 7.35%
viability, T/C (second compound 0.03 µM, first compound 0.3 µM): 4.55%
viability, T/C (second compound 0.0949 µM, first compound 0.000949 µM): 100%
viability, T/C (second compound 0.0949 µM, first compound 0.003 µM): 103%
viability, T/C (second compound 0.0949 µM, first compound 0.00949 µM): 85.2%
viability, T/C (second compound 0.0949 µM, first compound 0.03 µM): 42.6%
viability, T/C (second compound 0.0949 µM, first compound 0.0949 µM): 8.3%
viability, T/C (second compound 0.0949 µM, first compound 0.3 µM): 3.76%
viability, T/C (second compound 0.3 µM, first compound 0.000949 µM): 108%
viability, T/C (second compound 0.3 µM, first compound 0.003 µM): 101%
viability, T/C (second compound 0.3 µM, first compound 0.00949 µM): 90.4%
viability, T/C (second compound 0.3 µM, first compound 0.03 µM): 46.1%
viability, T/C (second compound 0.3 µM, first compound 0.0949 µM): 4.78%
viability, T/C (second compound 0.3 µM, first compound 0.3 µM): 5.31%
viability, T/C (second compound 0.949 µM, first compound 0.000949 µM): 116%
viability, T/C (second compound 0.949 µM, first compound 0.003 µM): 109%
viability, T/C (second compound 0.949 µM, first compound 0.00949 µM): 93.1%
viability, T/C (second compound 0.949 µM, first compound 0.03 µM): 46.6%
viability, T/C (second compound 0.949 µM, first compound 0.0949 µM): 4.71%
viability, T/C (second compound 0.949 µM, first compound 0.3 µM): 5.06%
viability, T/C (second compound 3 µM, first compound 0.000949 µM): 124%
viability, T/C (second compound 3 µM, first compound 0.003 µM): 119%
viability, T/C (second compound 3 µM, first compound 0.00949 µM): 106%
viability, T/C (second compound 3 µM, first compound 0.03 µM): 44.6%
viability, T/C (second compound 3 µM, first compound 0.0949 µM): 3.65%
viability, T/C (second compound 3 µM, first compound 0.3 µM): 4.05%
